“Also recorded” adds a separate entry of the source. Structures can show the parent of a compound that is named as a salt. Where two headings read alike, the source gives them in different places.
Legend:
[1] = target: T1, human serotonin (5-HT) transporter (hSERT) (Homo sapiens, UniProt P31645); assay: Serotonin uptake transport inhibition ([3H]5-HT uptake in hSERT-transfected HEK 293 cells); format: cell-based; details: screening at 1 μM and 10 μM (n=3), FIG. 9
T1 construct: expressed in transfected cells; host or cells: HEK 293 cells (Invitrogen), stably transfected
T1 sequence (P31645 whole entry): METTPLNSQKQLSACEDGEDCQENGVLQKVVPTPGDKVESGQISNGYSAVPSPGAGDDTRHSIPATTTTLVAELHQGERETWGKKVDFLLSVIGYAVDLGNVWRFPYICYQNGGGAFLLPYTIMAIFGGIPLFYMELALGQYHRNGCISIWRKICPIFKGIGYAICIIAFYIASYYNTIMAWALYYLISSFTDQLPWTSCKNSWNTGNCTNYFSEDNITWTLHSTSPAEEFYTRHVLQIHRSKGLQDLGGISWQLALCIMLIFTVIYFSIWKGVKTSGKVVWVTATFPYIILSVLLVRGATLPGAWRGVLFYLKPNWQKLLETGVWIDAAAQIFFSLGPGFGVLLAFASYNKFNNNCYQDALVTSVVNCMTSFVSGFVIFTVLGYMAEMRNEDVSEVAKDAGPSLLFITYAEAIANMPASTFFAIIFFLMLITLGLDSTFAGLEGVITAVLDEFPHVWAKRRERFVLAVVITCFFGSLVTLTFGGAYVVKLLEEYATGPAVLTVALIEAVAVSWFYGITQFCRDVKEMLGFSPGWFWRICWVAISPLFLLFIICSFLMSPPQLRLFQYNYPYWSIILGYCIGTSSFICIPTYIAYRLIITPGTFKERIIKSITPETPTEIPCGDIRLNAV
Description: Serotonin uptake transport inhibition. […] Briefly, cells were cultured in Dulbecco's modified Eagle's medium (DMEM; Gibco, Life Technologies, Zug, Switzerland) with 10% fetal bovine serum (Gibco) and 250 mg/mL Geneticin (Gibco) to 70-90% confluence, detached, and then resuspended (3×10^6 cells/mL) in Krebs-Ringer Bicarbonate Buffer (Sigma-Aldrich, Buchs, Switzerland). The cell suspension (100 μL) was incubated with 25 μL buffer containing the test compounds, vehicle control, or 10 μM fluoxetine (SERT-specific inhibitor) for 10 minutes in a round bottom 96-well plate at room temperature by shaking at 450 rotations per minute on a rotary shaker. To initiate uptake transport, 50 μL of [^3H] […] Thereafter, 100 μL of the cell suspension was transferred into 500 μL microcentrifuge tubes that contained 50 μL of 3 M KOH and 200 μL silicon oil (1:1 mixture of silicon oil types AR 20 and AR 200; Sigma-Aldrich). The tubes were centrifuged for 3 minutes at 16,550 g to transport the cells through the silicone oil into the KOH. The tubes were frozen in liquid nitrogen and the cell pellet was then cut into 6 mL scintillation vials (PerkinElmer, Schwerzenbach, Switzerland) that contained 0.5 mL lysis buffer (0.05 M TRIS-HCl, 50 mM NaCl, 5 mM EDTA, and 1% NP-40 in water). The samples were shaken for 1 hour before the addition of 5 mL scintillation liquid (Ultimagold, Perkin Elmer). Serotonin uptake was quantified by liquid scintillation counting on a Packard Tri-Carb Liquid Scintillation Counter 1900 TR. Non-specific uptake in the presence of fluoxetine was subtracted from the total counts.

[2] = target: T2, human 5-HT2A receptor (Homo sapiens, UniProt P28223); assay: 5-HT2A receptor activation assessment (IP1 accumulation, NIH/3T3 cells); format: cell-based; details: for 5-HT2A receptor activation, result in words: FIG. 10 / FIG. 11
T2 construct: expressed in transfected cells; host or cells: NIH/3T3 cells stably expressing the receptor
T2 sequence (P28223 whole entry): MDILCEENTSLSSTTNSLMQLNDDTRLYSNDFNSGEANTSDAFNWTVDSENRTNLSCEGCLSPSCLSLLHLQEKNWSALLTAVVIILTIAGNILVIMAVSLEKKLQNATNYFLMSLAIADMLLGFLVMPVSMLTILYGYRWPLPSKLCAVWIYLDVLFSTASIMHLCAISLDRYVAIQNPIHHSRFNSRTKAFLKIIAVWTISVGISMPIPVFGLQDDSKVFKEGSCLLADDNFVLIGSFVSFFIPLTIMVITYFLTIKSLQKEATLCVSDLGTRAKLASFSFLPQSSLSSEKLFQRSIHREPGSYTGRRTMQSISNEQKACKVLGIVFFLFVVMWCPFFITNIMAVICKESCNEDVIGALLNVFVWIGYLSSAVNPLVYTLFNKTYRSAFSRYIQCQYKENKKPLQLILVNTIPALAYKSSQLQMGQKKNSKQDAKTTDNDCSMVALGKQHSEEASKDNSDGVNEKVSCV
Description: 5-HT2A receptor activation assessment. Activation of the 5-HT2A receptor was assessed by measuring the accumulation of inositol monophosphate 1 (IP1) using the Cisbio IP-One Gq Kit (Cisbio Bioassays SAS, Codolet Cedex, France) according to the manufacturer's protocol. In brief, NIH/3T3 cells stably expressing the human 5-HT2A receptor were seeded at a density of 2,500 cells per well in a 384-well plate in Opti-MEM™ I medium (Gibco, ThermoFisher, Life Technologies Europe B.V., Zug, Switzerland). Then, test compounds were added, and the plate was incubated for 90 minutes at 37° C., followed by 60 minutes incubation with Anti-IP1-Cryptate and IP1-d2 at room temperature. Stimulated IP-1 formation was determined by Homogeneous Time-Resolved Fluorescence (HTRF) measurement on a BioTek Synergy H1 Multimode Reader (Agilent Technologies (Schweiz) AG, Basel, Switzerland) and EC50 values were derived from the concentration-response curves using nonlinear regression.

[3] = target: T1, human serotonin (5-HT) transporter (hSERT); details: read-out: IC50, SERT inhibition (Simmler et al., 2013); literature value in this assay; cited from earlier work
[4] = humans; Trachsel et al., 2013; cited from earlier work
[5] = NIH/3T3 cells expressing human 5-HT2A, FIG. 11, read-out: EC50, 5-HT2A receptor activation (IP1 formation)
[6] = values for hydrochloride salts, read-out: IC50 values at the 5-HT2A receptor

Compound: C=CC(Cc1ccc2c(c1)OCO2)NC.Cl (stereo not shown) [DH-MBDB, N-Methyl-1-(1,3-benzodioxol-5-yl) but-3-en-2-amine hydrochloride]
- IC50 [1]: 1000 to 10000 nM
- 5-HT2A receptor activation, result in words [2]: weaker activation efficacy

Compound: C=C(c1ccc2c(c1)OCO2)C(C)NC.Cl (stereo not shown) [BME-MDMA, 2-(1,3-Benzodioxol-5-yl)-3-(methylamino) butene hydrochloride]
- 5-HT2A receptor activation, result in words [2]: weaker activation efficacy

Compound: CNC(C)Cc1ccc2c(c1)OCO2 (stereo not shown) [MDMA, 3,4-Methylenedioxymethamphetamine]
- IC50 [3]: ~1400 nM

Compound: C#CC(N)Cc1ccc2c(c1)OCO2 (stereo not shown) [DDH-BDB, 1-(1,3-Benzodioxol-5-yl)but-3-yn-2-amine hydrochloride]
- IC50 [1]: > 10000 nM

Compound: C#CC(N)Cc1cc(OC)c(Br)cc1OC.Cl (stereo not shown) [DDH-4C-B, 1-(4-Bromo-2,5-dimethoxyphenyl)but-3-yn-2-amine hydrochloride]
- 5-HT2A receptor activation, result in words [2]: fully activated
- EC50 [2, 5]: 40.7 nM
- EC50 [2, 6]: 40.7 nM

Compound: CCC(N)Cc1cc(OC)c(Br)cc1OC (stereo not shown) [4C-B]
- active dose range (mixed psychedelic-energizing) [4]: 50 to 80 mg

Compound: C=CC(N)Cc1ccc2c(c1)OCO2.Cl (stereo not shown) [DH-BDB, 1-(1,3-Benzodioxol-5-yl) but-3-en-2-amine hydrochloride]
- IC50 [1]: 1000 to 10000 nM
- 5-HT2A receptor activation, result in words [2]: weaker activation efficacy

Compound: C#CC(Cc1ccc2c(c1)OCO2)NC (stereo not shown) [DDH-MBDB, N-Methyl-1-(1,3-benzodioxol-5-yl)but-3-yn-2-amine hydrochloride]
- IC50 [1]: > 10000 nM

Compound: 1-(Indol-3-yl) but-3-en-2-amine hemifumarate [DH-α-ET]
- IC50 ([1]; read-out: IC50, inhibition of 5-HT uptake (SERT)): < 1000 nM
- IC50, inhibition of 5-HT uptake (SERT) [1]: sub-micromolar
- efficacy at the 5-HT2A receptor, percentage of the maximal 5-HT response ([2]; at 10 μM): ~50%

Compound: C=CC(N)Cc1cc(OC)c(Br)cc1OC.Cl (stereo not shown) [DH-4C-B, 1-(4-Bromo-2,5-dimethoxyphenyl)but-3-en-2-amine hydrochloride]
- IC50 [1]: > 10000 nM
- 5-HT2A receptor activation, result in words ([2]; hydrochloride): fully activated; also recorded: potent activity
- EC50 [2, 5]: 22.1 nM
- EC50 [2, 6]: 22.1 nM
